Test results reported in PMC6009872, “Carbonic anhydrases from Trypanosoma cruzi and Leishmania donovani chagasi are inhibited by benzoxaboroles” (Journal of Enzyme Inhibition and Medicinal Chemistry, 2017).

How the values were obtained:
[1] = molecular target: T1, TcCA (Trypanosoma cruzi, UniProt Q4CVY4); test: stopped-flow CO2 hydrase assay; type: biochemical; conditions: 20 mM Hepes pH 7.5, 20 mM Na2SO4, CO2 1.7-17 mM, 15 min preincubation at room temperature
T1 construct: gene Tc00.1047053509597.20
T1 sequence (Q4CVY4 39-638): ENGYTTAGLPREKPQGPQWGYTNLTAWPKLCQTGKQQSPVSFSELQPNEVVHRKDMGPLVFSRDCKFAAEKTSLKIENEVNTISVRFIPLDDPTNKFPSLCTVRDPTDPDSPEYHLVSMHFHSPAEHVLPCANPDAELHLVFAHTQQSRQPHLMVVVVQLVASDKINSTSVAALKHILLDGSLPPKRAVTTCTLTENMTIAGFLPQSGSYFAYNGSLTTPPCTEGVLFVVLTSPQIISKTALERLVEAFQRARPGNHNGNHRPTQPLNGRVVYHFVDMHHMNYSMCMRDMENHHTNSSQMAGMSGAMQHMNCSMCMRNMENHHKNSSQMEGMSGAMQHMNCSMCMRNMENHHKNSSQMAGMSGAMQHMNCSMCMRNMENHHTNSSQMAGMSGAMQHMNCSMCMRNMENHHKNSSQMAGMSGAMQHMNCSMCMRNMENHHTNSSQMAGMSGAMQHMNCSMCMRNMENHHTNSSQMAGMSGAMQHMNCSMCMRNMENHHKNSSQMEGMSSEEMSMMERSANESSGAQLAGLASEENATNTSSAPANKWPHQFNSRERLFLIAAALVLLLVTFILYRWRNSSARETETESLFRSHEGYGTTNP

[2] = molecular target: T2, LdcCA (Leishmania infantum, UniProt A4HSV2); test: stopped-flow CO2 hydrase assay; type: biochemical; conditions: 20 mM TRIS pH 8.3, 20 mM Na2SO4, CO2 1.7-17 mM, 15 min preincubation at room temperature
T2 construct: gene LINJ_06_0630; organism given as Leishmania donovani chagasi
T2 sequence (A4HSV2 1-306): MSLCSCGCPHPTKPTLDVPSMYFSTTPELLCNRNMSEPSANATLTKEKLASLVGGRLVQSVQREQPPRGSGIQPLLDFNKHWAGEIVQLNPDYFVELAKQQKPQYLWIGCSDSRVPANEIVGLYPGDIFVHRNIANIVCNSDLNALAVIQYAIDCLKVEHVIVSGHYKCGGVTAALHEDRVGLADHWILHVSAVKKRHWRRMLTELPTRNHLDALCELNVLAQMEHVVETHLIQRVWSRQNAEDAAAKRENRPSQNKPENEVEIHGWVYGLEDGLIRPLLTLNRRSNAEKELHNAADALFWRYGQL

Compound	Ki [1]	Ki [2]
Cc1cc(Cl)cc(CNC(=O)Nc2ccc3c(c2)B(O)OC3)c1 [compound 5, 5]	87.6 µM	4.3 µM
O=C(Nc1ccc2c(c1)B(O)OC2)Nc1c(Cl)cc(Cl)cc1Cl [compound 11, 11]	69.5 µM	3.85 µM
OB1OCc2ccc(NC(=S)NCc3ccccc3)cc21 [compound 19, 19]	59.6 µM	4.37 µM
O=C(Nc1ccccc1)Nc1ccc2c(c1)B(O)OC2 [compound 6, phenylureido benzoxaborole 6]	32.3 µM	0.74 µM
OB1OCc2ccccc21 [compound 1, benzoxaborole 1]	> 100 µM	3.79 µM
O=C(Nc1ccc(C(F)(F)F)cc1)Nc1ccc2c(c1)B(O)OC2 [compound 10, 10]	60.7 µM	2.59 µM
OB1OCc2cc(F)ccc21 [Tavaborole, reference compound]	60.5 µM	2.54 µM
Nc1ccc2c(c1)B(O)OC2 [compound 3, 6-amino benzoxaborole 3]	> 100 µM	2.37 µM
O=C(Nc1ccc(F)cc1)Nc1ccc2c(c1)B(O)OC2 [compound 9, 9]	24 µM	0.78 µM
OB1OCc2ccc(NC(=S)NCc3ccco3)cc21 [compound 21, 21]	42.1 µM	4.36 µM
COc1ccc(C)cc1NC(=O)Nc1ccc2c(c1)B(O)OC2 [compound 12, 12]	38.6 µM	0.67 µM
OB1OCc2ccc(NC(=S)Nc3ccc4ccccc4c3)cc21 [compound 16, 16]	58.8 µM	3.06 µM
OB1OCc2ccc(NC(=S)NCCc3ccccc3)cc21 [compound 14, 14]	72.8 µM	3.2 µM
COc1ccc(NC(=S)Nc2ccc3c(c2)B(O)OC3)cc1 [compound 17, 17]	12.6 µM	0.59 µM
O=[N+]([O-])c1ccc2c(c1)B(O)OC2 [compound 2, 6-nitro benzoxaborole 2]	> 100 µM	4.01 µM
OB1OCc2ccc(NC(=S)Nc3ccccc3)cc21 [compound 23, phenylthioureido benzoxaborole 23]	23.4 µM	0.65 µM
O=C(NCc1ccco1)Nc1ccc2c(c1)B(O)OC2 [compound 8, 8]	67.6 µM	3.54 µM
O=C(Nc1ccc(Cl)cc1)Nc1ccc2c(c1)B(O)OC2 [compound 7, 7]	37.8 µM	0.62 µM
O=[N+]([O-])c1ccc(NC(=S)Nc2ccc3c(c2)B(O)OC3)cc1 [compound 18, 18]	46.8 µM	0.91 µM
CC(=O)c1ccc(NC(=O)Nc2ccc3c(c2)B(O)OC3)cc1 [compound 13, 13]	33.6 µM	0.48 µM
Cc1ccc(NC(=S)Nc2ccc3c(c2)B(O)OC3)cc1 [compound 15, 15]	32.5 µM	0.67 µM
OB1OCc2ccc(NC(=S)Nc3ccc(C(F)(F)F)cc3)cc21 [compound 22, 22]	16.6 µM	0.85 µM
O=C(NCc1ccccc1)Nc1ccc2c(c1)B(O)OC2 [compound 4, 4]	75.1 µM	2.04 µM
OB1OCc2ccc(NC(=S)Nc3ccc(F)cc3)cc21 [compound 20, 20]	19.7 µM	0.66 µM
